From US10308938B2, “Compositions and methods to activate or inhibit toll-like receptor signaling” (priority 2014, dated 2019)
Oligonucleotides are written 5' to 3', each unit as a sugar letter and its base; * is a phosphorothioate linkage, no mark a phosphodiester; rarer units and linkages stand in square brackets, end groups in braces. Plain capitals give the bases only. d = 2'-deoxy (DNA)

Legend:
[1] = test system: CD4^+ T cells; assay: Proliferation of CFSE-labeled CD4+ T cells stimulated with anti-CD3 and anti-CD28 in the presence of TLR ligands; type: cell-based, human; conditions: for proliferation of CD4+ T cells (frequency of proliferating cells): compared to control; for inhibition of proliferation, level relative to IMQ: three days
Source text: Cell isolation and FACS sorting of T cell populations. Peripheral blood mononuclear cells (PBMC) were isolated from healthy donors by Ficoll Hypaque gradient centrifugation. Total CD4^+ T cells were isolated by negative selection using CD4^+ T cell isolation kit (StemCell Technologies, Vancouver, BC) and stained for fluorescence-activated cell sorting (FACS) with the following antibodies: anti-CD45RO (clone UCHL1), CD45RA (clone H1100), CD25 (clone M-A251) (all from BD Biosciences) and CD127 (clone eBioRDR5) from eBioscience (San Diego, Calif.). The Treg (CD4^+CD25^hiCD127^low/neg) memory T cell (CD4^+CD45RA^−CD45RO^+CD25^low/neg+) and naïve T cell (CD4^+CD45RA^+CD45RO^−CD25^low/neg) populations were sorted on a FACS Aria (BD Biosciences). Unless specified, CD4^+ T cells used in the experiments were Treg-depleted CD4^+ T cells and they were sorted as CD4^+CD25^pos/lowCD127^+. The purity of the sorted CD4^+ T cell population was >98% as assessed by CD3 and CD4 staining after sort. CD14^+ cells were isolated by positive selection using EasySep™ Human CD14 Positive Selection Kit (StemCell Technologies).
(§1) Cell activation and intracellular staining.
While examining the costimulatory role of TLR on CD4^+ T cells, it was unexpectedly discovered that entry of CD4^+ cells into cell cycle with T cell receptor cross-linking and anti-CD28 was blocked by TLR7 engagement. Specifically, CD4^+ T cells were stimulated with anti-CD3 and anti-CD28 in the presence of different TLR agonists followed by analysis of proliferation and cytokine secretion.

[2] = test system: CD4^+ T cells; assay: Cytokine secretion by stimulated CD4+ T cells, ELISA; type: cell-based, human; conditions: day 3 after stimulation
Source text: as §1
(§2) Enzyme-linked immunosorbent assay.

[3] = test system: HIV-1NL-D; assay: HIV-1 in vitro infection of CD4+ T cells; type: cell-based; conditions: for frequency of HIV-1-infected CD4+ T cells: treatment before infection, MOI 0.001
Experimental: Preparation of HIV-1 virus stocks. HIV-1 proviral DsRed-tagged DNA pNL-D (derived from the prototype HIV-1 proviral DNA pNL432) was kindly provided by Dr. Yasuko Tsunetsugu-Yokota. 293T cells were used to prepare viral stocks following published protocols with minor modifications. In brief, 293T cells were plated at 0.5×10^6/well in 12-well plates and transfected with 2 μg pNL-D using Lipofectamine 2000 (Invitrogen) for 48 hours. Culture supernatant was treated with benzonase (1U/ml) for 30 minutes at 37 C, cleared by filtration and titrated on 293T cells. Stocks were stored at −80 C.
HIV-1 in vitro infection. CD4^+ T cells were stimulated with anti-CD3 (1 μg/ml) and anti-CD28 (1 μg/ml) for 48 hours and subsequently infected with HIV-1 at a MOI of 0.001 (concentration within the physiological range). Viability and cytokine secretion was measured every 48 hours for a total of 11 days after infection.
For HIV-1 infection on TLR7-deficient cells, CD4^+ T cells were stimulated as above and transduced with the corresponding lentiviral particles. 48 hours after transduction, the cells were infected with HIV-1NL-D at a MOI of 0.001. Viability and frequency of HIV-1-infected cells were measured at different time points by LIVE/DEAD cell dye staining and fixation with 1% PFA (to avoid DsRed signal loss). For intracellular staining after infection, the cells were restimulated with PMA and Ionomycin in the presence of GolgiStop for 4 hours and the staining was performed as recommended by Grupillo et al.

[4] = test system: HIV-1^+CD4^+ T cells; assay: Anergy-related gene expression in in vitro HIV-1-infected CD4+ T cells; type: cell-based, human; conditions: day seven after infection
Source text: (§3) Quantification of mRNA expression levels by RT-PCR. RNA was isolated using QIAGEN RNeasy Micro Plus Kit (QIAGEN, Valencia, Calif.), following manufacturer's guidelines and converted to cDNA by reverse transcription (RT) with random hexamers and Multiscribe RT (TQMN, Reverse Transcription Reagents; Applied Biosystems, Foster City, Calif.). For mRNA gene expression assays, probes were purchased from Applied Biosystems (Table 2) and the reactions were set up following manufacturer's guidelines and run on a StepOne Real-Time PCR System (Applied Biosystems). Values are represented as the difference in Ct values normalized to β2-microglobulin for each sample as per the following formula: Relative RNA expression=(2^−dCt)×1000.
To confirm this observation, the expression of anergy-related genes in in vitro HIV-1-infected CD4^+ T cells from five healthy donors in the presence of IRS661 (to inhibit TLR7) or a control sequence at day seven after infection was examined (FIG. 40).

[5] = test system: CD4^+ T cells; assay: Anergy-related gene expression, TaqMan real-time PCR; type: cell-based, human; conditions: preincubation with IRS661 before IMQ
Source text: as §3
To examine whether TLR7 stimulation and subsequent NFAT dephosphorylation induces the expression of anergy-related genes, CD4^+ T cells were incubated for 2-16 hours with IMQ in the presence or absence of the TLR7 inhibitory sequence IRS661 and RNA was isolated to examine the hypothesis that TLR7 engagement induced expression of anergy-related genes previously described. As a control for anergy-related gene expression, CD4^+ T cells were incubated with either ionomycin and PMA or ionomycin alone. […] The effect observed in the regulation of these genes was TLR7-specific, as preincubation of CD4^+ T cells with IRS661 before IMQ treatment abrogated the increase in anergy-related gene expression.

[6] = test system: HIV-1 (NL-432); assay: HIV-1 infection of humanized MISTRG mice, viral load; type: in vivo, mouse; conditions: 20 μM IRS661 at day 0 or day 14 after infection
Experimental: Mouse experiments. MISTRG mice (Nature Biotechnology 2014; 32; 364-372) were infected with HIV-1 (50 ng p24) at day 0 in the presence of 20 μM IRS661 or control sequence (at either day 0 or day 14). Serum was obtained at different time points and RNA was isolated by Direct-zol RNA MiniPrep kit (Zymo Research). Viral load was measured by Gag amplification by Real Time PCR
In order to test the role of TLR7 inhibition in HIV-1 infection in vivo, a humanized mouse model (Rongvaux et al., Nat. Biotech., 32:364-372 (2014)) was used. Three groups of mice were infected with HIV-1 (NL-432): one control group, another group that was injected with IRS661 at the same time of HIV-1 infection (day 0), and a third group where IRS661 was injected at the peak of infection (day 14 after HIV-1 infection). […] For those mice that were injected with IRS661 at day 14 after infection (FIG. 55, white dots), viral load was measured at day 21 after infection. One mouse from the control group (black dots) died at day 17.

[7] = test system: HIV-1; conditions: supernatants every three days, 14 days
Source text: CD4^+ T cells isolated from HIV-1 infected patients (Table 3) were stimulated in the presence of IRS661 (FIG. 50) or were transduced with two TLR7-specific shRNA (FIG. 51) with supernatant collections every three days for a total of 14 days to measure virus concentration by p24 ELISA.

[8] = test system: memory T cells; assay: IMQ pretreatment, washout, rest and restimulation with anti-CD3 and anti-CD28; type: cell-based, human; conditions: IRS661 pretreated cells
Experimental: as §2
To determine if pretreatment of CD4^+ T cells with IMQ would be sufficient to diminish their subsequent cytokine secretion and proliferative response to a full stimulation, memory T cells were pre-treated with IMQ for 2 hours and rested for 12 hours after washout to remove traces of IMQ and then stimulated with anti-CD3 and anti-CD28 for 3 days.

[9] = test system: HIV-1; conditions: day seven; compared to control cells
Experimental: Furthermore, proviral integrated DNA load was measured at day seven after stimulation in the presence of IRS661 or a control sequence (FIG. 52) and after transduction with TLR7-specific shRNA (FIG. 53) to monitor the cellular viral reservoir.

[10] = test system: CD4^+ T cells; assay: Intracellular calcium measurement (INDO-1AM); type: cell-based, human
Experimental: Intracellular calcium measurements. Ex vivo isolated CD4^+ T cells were labeled with 5 μM INDO-1AM for one hour at 37° C. in PBS, 1 mM Ca^2+. Cells were washed to remove traces of INDO-1AM, resuspended in buffer at 10^6 cells/ml and incubated for 30 minutes at 37° C. before analysis. When necessary, IRS661 was added at the indicated concentration during the 30 minute incubation. For acquisition, the sample was acquired for approximately 3 minutes to obtain basal levels of calcium and subsequently IMQ or other reagents were added at the indicated concentrations. Samples were acquired for a minimum of 10 minutes on a BD Fortessa instrument and analysed with FlowJo software.

| Compound | proliferation of CD4+ T cells (frequency of proliferating cells) [1] | IFNγ secretion [2] | IL-2 secretion [2] | IL-4 secretion [2] | IL-17 secretion [2] | also measured |
| --- | --- | --- | --- | --- | --- | --- |
| CCCCNc1nc(N)c2[nH]c(=O)n(Cc3ccc(C(=O)NCC(=O)O)cc3)c2n1 [CL264] | significant decrease | inhibited | inhibited | inhibited | inhibited | – |
| COc1cc(N(CC(=O)OCOC(C)=O)CC(=O)OCOC(C)=O)c2nc(COc3cc(C)ccc3N(CC(=O)OCOC(C)=O)CC(=O)OCOC(C)=O)ccc2c1 [Quin-2 AM] | – | – | – | – | – | frequency of viable cells [3]: significantly decreased; frequency of HIV-1-infected CD4+ T cells [3]: marked decrease |
| C=CCn1c(=O)n([C@@H]2O[C@H](CO)[C@@H](O)[C@H]2O)c2nc(N)[nH]c(=O)c21 [Loxoribine] | significant decrease | inhibited | inhibited | inhibited | inhibited | inhibition of proliferation, level relative to IMQ [1]: comparable to IMQ treatment |
| CCNCc1nc2c(N)nc3ccccc3c2n1CC(C)(C)O [Gardiquimod] | significant decrease | inhibited | inhibited | inhibited | inhibited | inhibition of proliferation, level relative to IMQ [1]: comparable to IMQ treatment |
| C[C@H](CCC(=O)O)C[C@H](C)C[C@H](C)C(=O)/C=C(\O)[C@H](C)C[C@H](C)C/C=C/[C@@H](C)[C@@H](O)[C@@H](C)[C@@H](O)C[C@@H]1CC[C@@](C)([C@H]2CC[C@@](C)([C@@H](C)O)O2)O1 [ionomycin] | – | – | – | – | – | frequency of HIV-1-infected CD4+ T cells [3]: increased |
| 5′-TGCTTGCAAGCTTGCAAGCA-3′ (DNA dT*dG*dC*dT*dT*dG*dC*dA*dA*dG*dC*dT*dT*dG*dC*dA*dA*dG*dC*dA) [IRS661] | – | – | – | – | – | expression of 12 anergy-related genes in HIV-1+CD4+ T cells [4]: did not upregulate any of these genes; IMQ-induced increase in anergy-related gene expression [5]: abrogated; HIV-1 viral load [6]: decreases; concentration of p24 in culture [7]: strongly decreased; IMQ-induced decrease of IFNγ production [8]: not observed; IMQ-induced decrease of IL-2 production [8]: not observed; proviral DNA load [9]: dramatic decrease; increase in calcium concentration upon IMQ stimulation ([10]; pre-incubation with IRS661): impaired |
| Poly(I:C) | – | – | – | – | – | intracellular calcium concentration ([10]; INDO-1AM ratio over time): not observed |
